Consider eight compounds from patent US9856245B2, “GPR40 agonists for the treatment of type II diabetes” (Janssen Pharmaceutica NV, priority 2015, dated 2018).

A word on the pEC50: it is the negative decadic logarithm of the EC50, by convention in mol/L.

pEC50: −log10 of the molar value. Values joined by “and” are separate entries in the source; they are usually repeats but may differ in a detail not shown here. Equal entries are not always repeated.

In the experiment the target is T1, human GPR40 (Homo sapiens, UniProt O14842).
T1 construct: expressed in transfected cells
In words: GPR40 calcium flux assay (hGPR40 Ca2+ Assay). The experiment is classed as cell-based. The note with it: transfected HEK293 cells stably expressing human GPR40; Fluo 8 calcium dye; multiple values = repeated testing; read-out: hGPR40 Ca^2+ Assay EC50. As to the method:
Compounds were tested in a calcium flux assay using transfected HEK293 cells stably expressing either human GPR40 or rat GPR40. Human GPR40 expressing cells were cultured in DMEM-High Glucose media supplemented with 10% fetal bovine serum, 1× L-Glutamine, 1× Penicillin/Streptomycin and 500 μg/mL G418. Rat GPR40 expressing cells were cultured in DMEM-High Glucose media supplemented with 10% fetal bovine serum and 1 μg/mL puromycin. Cells were plated into poly-D-lysine coated 384-well plates and cultured overnight in a 37° C. humidified tissue culture incubator under 5% CO2/[…] atmosphere. On the day of the experiment, the culture media was replaced with assay buffer (HBSS, 20 mM HEPES, 0.1% BSA) and the cells incubated at 37° C. for 1 h. Calcium-sensitive fluorescent dye (Fluo 8 No-Wash Calcium Dye, ABD Bioquest) was then added and the cells incubated for another 30 min at 37° C. followed by 15 min at room temperature while protected from the light. The cell plate and a plate of diluted compounds of Formula (III) were loaded into a fluorescent plate reader that added compounds onto the cells while measuring the fluorescence intensity of each well. The plate reader recorded fluorescence intensity at 1 second intervals for 8 min and provided the data for analysis in an Excel format. EC50 values were calculated using Prism (GraphPad) software.
In general terms: A change in cytosolic calcium serves as a functional read-out for many receptors and channels.

T1 sequence (O14842 whole entry): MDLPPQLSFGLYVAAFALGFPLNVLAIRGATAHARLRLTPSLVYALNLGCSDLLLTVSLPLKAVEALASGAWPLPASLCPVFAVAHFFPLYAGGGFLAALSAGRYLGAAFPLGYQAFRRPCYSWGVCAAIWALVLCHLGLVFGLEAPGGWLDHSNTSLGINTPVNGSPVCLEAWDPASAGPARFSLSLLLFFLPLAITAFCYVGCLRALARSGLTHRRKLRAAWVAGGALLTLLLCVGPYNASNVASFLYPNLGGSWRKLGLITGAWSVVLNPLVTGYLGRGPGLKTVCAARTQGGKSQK

Take `COc1ccc(F)c(-n2cnc(COc3cccc([C@@H](CC(=O)O)C4CC4)c3)c2C=C(C)C)c1` [Cpd 91, (3S)-3-cyclopropyl-3-[3-[[1-(2-fluoro-5-methoxy-phenyl)-5-(2-methylprop-1-enyl)imidazol-4-yl]methoxy]phenyl]propanoic acid]: the pEC50 is 6.32 and 6.38.
To `COc1ccc(F)c(-n2nnc(COc3cccc([C@@H](CC(=O)O)C4CC4)c3)c2-c2ccc(C(C)(C)C)s2)c1` [Cpd 92, (3S)-3-[3-[[5-(5-tert-butyl-2-thienyl)-1-(2-fluoro-5-methoxy-phenyl)triazol-4-yl]methoxy]phenyl]-3-cyclopropyl-propanoic acid] belongs 8.00 and 8.05; to `COc1ccc(F)c(-n2cnc(COc3cccc([C@@H](CC(=O)O)C4CC4)c3)c2CC(C)C)c1` [Cpd 93, (3S)-3-cyclopropyl-3-[3-[[1-(2-fluoro-5-methoxy-phenyl)-5-isobutyl-imidazol-4-yl]methoxy]phenyl]propanoic acid], 6.87 and 6.88.
Take `COc1ccc(F)c(-n2ncc(COc3cccc([C@@H](CC(=O)O)C4CC4)c3)c2-c2ccc(C)s2)c1` [Cpd 94, (3S)-3-cyclopropyl-3-[3-[[1-(2-fluoro-5-methoxy-phenyl)-5-(5-methyl-2-thienyl)pyrazol-4-yl]methoxy]phenyl]propanoic acid]: the negative logarithm of the EC50 (pEC50) was 6.92 and 7.22.
`COc1ccc(F)c(-n2ncc(COc3cccc([C@@H](CC(=O)O)C4CC4)c3)c2-c2ccc(F)cc2F)c1` [Cpd 95, (3S)-3-cyclopropyl-3-[3-[[5-(2,4-difluorophenyl)-1-(2-fluoro-5-methoxy-phenyl)pyrazol-4-yl]methoxy]phenyl]propanoic acid]: the pEC50 is 7.19 and 7.26.
To `COc1ccc(F)c(-n2ncc(COc3cccc([C@@H](CC(=O)O)C4CC4)c3)c2-c2cc(C)cc(C)c2)c1` [Cpd 96, (3S)-3-cyclopropyl-3-[3-[[5-(3,5-dimethylphenyl)-1-(2-fluoro-5-methoxy-phenyl)pyrazol-4-yl]methoxy]phenyl]propanoic acid] belongs 7.60 and 7.64.
To `COc1ccc(F)c(-n2nnc(COc3cccc([C@@H](CC(=O)O)C4CC4)c3)c2OC2CCCCC2)c1` [Cpd 97, (3S)-3-[3-[[5-(cyclohexoxy)-1-(2-fluoro-5-methoxy-phenyl)triazol-4-yl]methoxy]phenyl]-3-cyclopropyl-propanoic acid] belongs 7.89 and 8.10.
As for `COc1ccc(F)c(-n2nnc(COc3cccc([C@@H](CC(=O)O)C4CC4)c3)c2OC(C)C)c1` [Cpd 98, (3S)-3-cyclopropyl-3-[3-[[1-(2-fluoro-5-methoxy-phenyl)-5-isopropoxy-triazol-4-yl]methoxy]phenyl]propanoic acid], the negative logarithm of the EC50 (pEC50) was 7.33 and 7.44.
